In assay [1] the target is T1, IRT1 (Arabidopsis thaliana, UniProt Q38856).
T1 construct: contain a single 1017 bp open reading frame capable of encoding a polypeptide of 339 amino acids; expressed in transfected cells; host or cells: S. cerevisiae fet3 fet4 strain DEY1453 carrying pIRT-1 (pFL61 library vector, phosphoglycerate kinase promoter)
T1 sequence (Q38856 9-347 limits assumed): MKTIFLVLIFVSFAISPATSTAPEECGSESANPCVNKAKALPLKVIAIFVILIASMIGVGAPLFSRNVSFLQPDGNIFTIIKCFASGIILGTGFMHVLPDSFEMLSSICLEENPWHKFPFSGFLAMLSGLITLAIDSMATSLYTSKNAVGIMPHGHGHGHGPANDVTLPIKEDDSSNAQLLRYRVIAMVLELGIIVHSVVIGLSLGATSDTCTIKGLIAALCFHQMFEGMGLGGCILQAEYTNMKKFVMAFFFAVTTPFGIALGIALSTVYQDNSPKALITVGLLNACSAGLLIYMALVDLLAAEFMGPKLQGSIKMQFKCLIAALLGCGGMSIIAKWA
Briefly: 55Fe uptake in fet3 fet4 yeast expressing IRT1. It is filed as cell-based. As to conditions: for effect on the rate of iron uptake by IRT1: 10 μM metal, 10 times the radiolabeled iron, Fe(II) with 1 mM ascorbate. As for the experimental part:
Iron uptake assays using ^55FeCl3 (Amersham, Arlington Heights, Ill.) were performed as described (Eide, D. et al. (1992) J. Biol. Chem. 267: 20774-20781) except that MGN (10 mM Mes/2% glucose/1 mM nitrilotriacetic acid, pH 6.1) was used for the assay buffer. Where noted, 1 mM sodium ascorbate was added to reduce Fe(III) to Fe(II). Stock solutions of the chloride salt of each metal (except for iron) were prepared in water at a concentration of 100 mM and diluted into MGN to a final concentration of 10 μM before addition of the cells. The ^56FeCl3 stock was 50 mM prepared in 0.1 M HCl. The statistical significance of differences in values relative to controls was determined using STATVIEW software (Abacus Concepts, Berkeley, Calif.). Data was subjected to one-way analysis of variance (ANOVA) followed by a Scheffe's test.
To determine if IRT1 encodes an iron transporter, ^55Fe uptake rates were examined in a fet3 fet4 strain expressing IRT1. Little or no uptake was detected at 0° C. for either IRT1-expressing or untransformed control cells (FIG. 2A). The fet3 fet4 mutant strain DEY1453 (circles) and DEY1453 transformed with pIRT-1 (squares) were grown to exponential phase in SD glucose and assayed for iron uptake with ^55Fe. (A) Time- and temperature-dependence of iron accumulation assayed in MGN with 1 mM ascorbate and 5 μM ^55FeCl3 assayed at 30° C. (open symbols) or 0° C. (solid symbols). The dashed line marked with open triangles represents the IRT1-dependent accumulation, i.e., the accumulation of iron by the untransformed strain at 30° C. subtracted from the accumulation of the pIRT-1-bearing strain at 30° C. […] The IRT1-dependent rate was ≈3-fold higher than the control uptake rate. No increased uptake was apparent in strains bearing either of two randomly selected clones from the library, indicating the dependence of these uptake effects on expression of IRT1. The iron uptake activity dependent on IRT1 expression was also concentration-dependent and saturable (FIG. 2B). The same strains as in A were assayed for iron uptake rates for 10 min over a range of concentrations. The dashed lines marked with open triangles represents the IRT1-dependent uptake rate, i.e., background uptake rate of the untransformed strain subtracted from the corresponding rate of the pIRT-1-bearing strains. (Inset) Eadie-Hofstee plot of the IRT1-dependent uptake data. Each point represents the mean of three experiments each performed in duplicate. The standard deviation within each experiment was less that 20% of the corresponding mean.
The experiments described above were conducted with iron supplied as Fe(II), i.e., in the presence of ascorbate, an agent capable of reducing Fe(III) to Fe(II). To determine if Fe(II) is the preferred substrate over Fe(III), assays were carried out in the absence of ascorbate where iron is supplied to the cells as Fe(III). […] The fet3 fet4 mutant strain DEY1453 and DEY1453 transformed with pIRT-1 were grown to exponential phase is SD glucose and assayed for iron uptake with 1 μM FeCl3 in MGN for 10 min. The values shown are the IRT1-dependent rates, i.e., the untransformed strain control values were subtracted from the DEY1453 pIRT-1 values and represent the means of four replicates. The asterisks indicate significant of differences from the control values (P<0.05). Assays were performed in the absence [Fe(III)] or presence [Fe(II)] of 1 mM ascorbate. […] Although yeast are capable of reducing Fe(III) to Fe(II) through the action of plasma membrane Fe(III) reductases, this rate of cell-mediated reduction is slower than reduction by ascorbate and therefore may be rate-limiting for IRT1-dependent uptake. To assess if metals other than iron are potential substrates for IRT1, several transition metals were tested for their ability to inhibit accumulation of iron in IRT1-expressing cells (FIG. 3B). Assays were conducted in the absence (−) or presence of 10 μM metal. […]

In assay [2] the target is T1, IRT1. Briefly: 55Fe uptake in fet3 fet4 yeast expressing IRT1. It counts as cell-based. The settings on record: metal at 100-fold excess.

Molecules are shown by their SMILES.

For the compound `[Cl][Ni][Cl]` [Ni], the “effect on the rate of iron uptake by IRT1” value (from here on “effect on the rate”) in assay [1] (10 min) is “no significant effect”.
For `[Cl][Cu][Cl]` [Cu], the “effect on the rate” value in assay [1] (10 min) is reported as “no significant effect”.
For the compound `[Zn+2]` [zinc], the “inhibition of IRT1-mediated Fe(II) uptake in yeast (summary statement)” value (“inhibition … (summary statement)” for short) in assay [1] was “inhibitors of IRT1-mediated Fe(II) uptake”. For the same compound, the “effect on the rate” value in assay [1] (10 min) is reported as “no significant effect”. Further, the “inhibition of IRT1-dependent iron uptake” value in assay [2] is recorded as “inhibit IRT1-dependent iron uptake”.
Take `[Cl][Fe]([Cl])[Cl]` [Fe(III)]: the “iron uptake rate in the absence of ascorbate relative to rate with ascorbate” value in assay [1] (1 μM FeCl3 in MGN, 10 min, iron supplied as Fe(III)) is “≈ 10%”.
`[Fe+2]` [Fe(II)]: the “IRT1-dependent uptake rate relative to control uptake rate” value in assay [1] (5 μM 55FeCl3, 1 mM ascorbate, 30° C., first 10 min) is “≈ 3 fold”. In addition, the “effect on the rate” value in assay [1] (10 min) is “potent inhibitors”. Besides, in assay [1] (iron supplied as Fe(II) (1 mM ascorbate), 10 min, DEY1453 pIRT-1 minus untransformed strain), the “Vmax of IRT1-mediated iron uptake” value is recorded as 1.9±0.4 pmol per min per 10^6 cells. Further, the Km in assay [1] (iron supplied as Fe(II) (1 mM ascorbate), 10 min, DEY1453 pIRT-1 minus untransformed strain, read-out: apparent Km of IRT1-mediated iron uptake) worked out at 6 ± 1 µM.
For `[Cl][Mn][Cl]` [Mn], in assay [1], the “inhibition … (summary statement)” value was “inhibitors of IRT1-mediated Fe(II) uptake”. The “effect on the rate” value in assay [1] (10 min) was “no significant effect”. In assay [2], the “inhibition of IRT1-dependent iron uptake” value is on record as “inhibit IRT1-dependent iron uptake”.
On to `[Cl-].[Cl-].[Co+2]` [Co], for which the “inhibition … (summary statement)” value in assay [1] was “inhibitors of IRT1-mediated Fe(II) uptake”. The “effect on the rate” value in assay [1] (10 min) is on record as “no significant effect”. In addition, in assay [2], the “inhibition of IRT1-dependent iron uptake” value is reported as “inhibit IRT1-dependent iron uptake”.

The record behind these values is patent US6590140B1, “Metal-regulated transporters and uses therefor” (Trustees of Dartmouth College, priority 1996, dated 2003).
